≈ marks a conversion by molar mass, not a printed value. Where “and” joins values, the source holds several entries; their conditions need not be identical. Identical values can stand only once.

Assay in all cases: ≥ marks a high value that may be exact or a test limit, other limits are often not marked, values filed in µg/mL are converted to µM
In test [1] the test system is Escherichia coli ATCC 25922.
The subject of test [2] is Staphylococcus aureus ATCC 25923.
The subject of test [3] is Staphylococcus aureus ATCC 29213.
For test [4], the system named is Staphylococcus aureus.
Test [5] relates to Pseudomonas aeruginosa ATCC 27853.
The test system of test [6] is Escherichia coli.
Test [7] deals with Pseudomonas aeruginosa.

As for `CC(C)C[C@H](NC(=O)CNC(=O)[C@H](CCCCN)NC(=O)CNC(=O)[C@H](C)NC(=O)[C@H](C)N)C(=O)N[C@H](C(=O)N[C@@H](CO)C(=O)N[C@@H](CC(N)=O)C(=O)N[C@@H](CC(C)C)C(=O)N[C@@H](CC(C)C)C(=O)N[C@@H](CCC(=O)O)C(=O)N[C@@H](CCCCN)C(N)=O)C(C)C` [AAGKGLVSNLLEK], the MIC (commonly the least concentration at which growth counts as inhibited) in test [1] was 24.6 µM (≈ 31.9 µg/mL); in test [2], 49 µM (≈ 63.6 µg/mL).
As for `CC[C@H](C)[C@H](NC(=O)[C@@H](N)Cc1ccccc1)C(=O)N[C@@H](CCCN=C(N)N)C(=O)N[C@@H](CO)C(=O)N[C@@H](CC(C)C)C(=O)N[C@@H](Cc1ccccc1)C(=O)N[C@@H](Cc1ccccc1)C(=O)N[C@@H](Cc1ccccc1)C(N)=O` [FIRSLFFF], the MIC in test [1] and in test [2] was over 100 µM in each case.
For `CC[C@H](C)[C@H](NC(=O)[C@H](CCCN=C(N)N)NC(=O)[C@H](CCC(N)=O)NC(=O)[C@@H](NC(=O)CNC(=O)[C@H](CCCN=C(N)N)NC(=O)[C@H](CCCCN)NC(=O)[C@@H](N)Cc1ccccc1)C(C)C)C(=O)N[C@@H](CCCCN)C(=O)N[C@@H](CC(=O)O)C(=O)N[C@@H](Cc1ccccc1)C(=O)N[C@@H](CC(C)C)C(=O)N[C@@H](CCCN=C(N)N)C(=O)O` [FKRGVQRIKDFLR], the MIC in test [3] was over 40 µM; in test [1], 10 µM (≈ 16.6 µg/mL).
For the compound `CC(C)C[C@H](NC(=O)[C@H](CC(C)C)NC(=O)[C@H](CCCCN)NC(=O)[C@H](CCCCN)NC(=O)[C@H](CC(C)C)NC(=O)[C@H](Cc1ccccc1)NC(=O)[C@H](CCCCN)NC(=O)[C@H](CC(C)C)NC(=O)[C@@H](N)Cc1ccccc1)C(N)=O` [FLKFLKKLL], in test [1], the MIC is 13.9 µM and 27.8 µM.
Turning to `CC[C@H](C)[C@H](NC(=O)[C@H](CCCCN)NC(=O)[C@H](CC(C)C)NC(=O)[C@@H](N)Cc1ccccc1)C(=O)N[C@@H](CC(C)C)C(=O)N[C@@H](CCCCN)C(=O)N[C@@H](CCCCN)C(=O)N[C@@H](CC(C)C)C(=O)N[C@@H](CC(C)C)C(N)=O` [FLKILKKLL], the MIC in test [2] is 14.3 µM (≈ 16 µg/mL).
For the compound `CC[C@H](C)[C@H](NC(=O)[C@@H]1CCCN1C(=O)[C@H](CC(C)C)NC(=O)[C@@H](N)Cc1ccccc1)C(=O)N[C@@H](C)C(=O)N[C@@H](CO)C(=O)N[C@@H](CC(C)C)C(=O)N[C@@H](CC(C)C)C(=O)NCC(=O)N[C@@H](CCCCN)C(=O)N[C@@H](Cc1ccc(O)cc1)C(=O)N[C@@H](CC(C)C)C(=O)O` [FLPIASLLGKYL], the MIC in test [4] was over 200 µM.
Regarding `CC(C)[C@H](NC(=O)[C@H](CCCN=C(N)N)NC(=O)[C@@H](N)Cc1ccccc1)C(=O)N[C@H](C(=O)N[C@@H](Cc1c[nH]c2ccccc12)C(=O)N[C@@H](CCCN=C(N)N)C(=O)N[C@H](C(=O)N[C@@H](CCCCN)C(=O)N[C@@H](Cc1c[nH]c2ccccc12)C(=O)N[C@@H](Cc1c[nH]c2ccccc12)C(=O)N[C@@H](CCCCN)C(=O)NCC(N)=O)[C@@H](C)O)[C@@H](C)O` [FRVTWRTKWWKG], the MIC stood at 6 µM (≈ 9.9 µg/mL) in test [1] and 3 µM (≈ 4.95 µg/mL) in test [2].
For `CC[C@H](C)[C@H](NC(=O)CN)C(=O)NCC(=O)N[C@@H](C)C(=O)N[C@H](C(=O)N[C@@H](CC(C)C)C(=O)N[C@@H](CCCCN)C(=O)N[C@H](C(=O)N[C@@H](CC(C)C)C(=O)N[C@@H](C)C(=O)N[C@@H](CC(C)C)C(=O)N[C@H](C(=O)N[C@@H](CO)C(=O)N[C@@H](Cc1c[nH]c2ccccc12)C(=O)N[C@H](C(=O)N[C@@H](CCCCN)C(=O)N[C@@H](CCCN=C(N)N)C(=O)N[C@@H](CCCCN)C(=O)N[C@@H](CCCN=C(N)N)C(N)=O)[C@@H](C)CC)[C@@H](C)CC)C(C)C)C(C)C` [GIGAVLKVLALISWIKRKR], the MIC was 11.2 µM (≈ 23.9 µg/mL) in test [5], 5.6 µM (≈ 11.9 µg/mL) in test [2] and 11.2 µM (≈ 23.9 µg/mL) in test [6].
In the case of `NCC(=O)N[C@@H](CCCN=C(N)N)C(=O)N[C@@H](CCCN=C(N)N)C(=O)N1CCC[C@H]1C(=O)N[C@@H](CCCN=C(N)N)C(=O)N1CCC[C@H]1C(=O)N[C@@H](CCCN=C(N)N)C(=O)N1CCC[C@H]1C(=O)N[C@@H](CCCN=C(N)N)C(=O)N1CCC[C@H]1C(=O)N[C@@H](Cc1ccccc1)C(=O)N[C@@H](Cc1ccccc1)C(=O)N[C@@H](Cc1ccccc1)C(=O)N[C@@H](Cc1ccccc1)C(=O)O` [GRRPRPRPRPFFFF], the MIC was found to be 40 µM (≈ 73.3 µg/mL) in test [3], 160 µM (≈ 293 µg/mL) in test [1] and 80 µM (≈ 147 µg/mL) in test [5].
Turning to `CC[C@H](C)[C@H](NC(=O)[C@H](CCCN=C(N)N)NC(=O)[C@@H](N)CCCCN)C(=O)N[C@@H](CCCCN)C(=O)N[C@H](C(=O)N[C@@H](CC(C)C)C(=O)N[C@@H](CC(C)C)C(N)=O)[C@@H](C)O` [KRIKTLL], the minimum inhibitory concentration (MIC) in test [1] and in test [2] was over 70 µM throughout.
Turning to `CC[C@H](C)[C@H](NC(=O)[C@H](Cc1ccccc1)NC(=O)[C@H](CO)NC(=O)[C@H](CCCCN)NC(=O)[C@H](Cc1c[nH]c2ccccc12)NC(=O)[C@@H](N)CCCCN)C(=O)N[C@@H](CCCCN)C(=O)N[C@@H](CCCCN)C(=O)N[C@@H](CC(C)C)C(=O)N[C@@H](C)C(=O)N[C@@H](CO)C(=O)N[C@@H](CCCCN)C(=O)N[C@@H](Cc1ccccc1)C(=O)N[C@@H](CC(C)C)C(=O)N[C@@H](Cc1cnc[nH]1)C(=O)N[C@@H](CO)C(=O)N[C@@H](C)C(=O)N[C@@H](CCCCN)C(=O)N[C@@H](CCCCN)C(=O)N[C@@H](Cc1ccccc1)C(N)=O` [KWKSFIKKLASKFLHSAKKF], the MIC in test [7] is 5.16 µM (≈ 12.5 µg/mL).
`CC[C@H](C)[C@H](NC(=O)[C@H](CCSC)NC(=O)[C@H](C)NC(=O)[C@@H]1CCCN1C(=O)[C@@H](NC(=O)[C@@H](NC(=O)[C@H](CCCCN)NC(=O)[C@@H](NC(=O)[C@H](CC(C)C)NC(=O)CNC(=O)CNC(=O)[C@@H](N)CC(C)C)[C@@H](C)CC)[C@@H](C)CC)C(C)C)C(=O)N[C@H]1CSSC[C@@H](C(=O)O)NC(=O)[C@H](CCCCN)NC(=O)[C@H](CCCCN)NC(=O)[C@H]([C@@H](C)O)NC(=O)[C@H](C(C)C)NC(=O)[C@H](C)NC1=O` [LGGLIKIVPAMICAVTKKC]: the MIC in test [3] is 131 µM (≈ 256 µg/mL); in test [1], 131 µM (≈ 256 µg/mL); in test [5] it was over 131 µM.
`CC[C@H](C)[C@H](NC(=O)[C@H](CCCCN)NC(=O)[C@H](CCCCN)NC(=O)[C@@H](N)CCC(N)=O)C(=O)N[C@@H](CCCN=C(N)N)C(=O)N[C@H](C(=O)N[C@@H](CCCN=C(N)N)C(=O)N[C@@H](C)C(=O)N[C@@H](CO)C(=O)N[C@@H](C)C(=O)O)C(C)C` [QKKIRVRASA]: the MIC in test [3], in test [1] and in test [5] was over 55.3 µM in each case.
As to `CC[C@H](C)[C@H](NC(=O)[C@H](CCCCN)NC(=O)[C@H](CCCCN)NC(=O)[C@@H](N)CCC(N)=O)C(=O)N[C@@H](CCCN=C(N)N)C(=O)N[C@H](C(=O)N[C@@H](CCCN=C(N)N)C(=O)N[C@@H](CC(C)C)C(=O)N[C@@H](C)C(=O)N[C@@H](C)C(=O)O)C(C)C` [QKKIRVRLAA], the MIC in test [3] was over 54.1 µM; in test [1], 13.5 µM (≈ 16 µg/mL); in test [5], 13.5 µM (≈ 16 µg/mL).
Consider `CC(C)[C@H](NC(=O)[C@H](Cc1c[nH]c2ccccc12)NC(=O)[C@H](C)NC(=O)[C@@H](N)CCCN=C(N)N)C(=O)N[C@@H](C)C(=O)N[C@@H](Cc1c[nH]c2ccccc12)C(=O)N[C@@H](CCCN=C(N)N)C(=O)N[C@@H](CC(N)=O)C(=O)N[C@@H](CCCN=C(N)N)C(N)=O` [RAWVAWRNR], for which the minimum inhibitory concentration (MIC) came to 206 µM (≈ 250 µg/mL) in test [3] and 412 µM (≈ 500 µg/mL) in test [1].
For `CSCC[C@H](NC(=O)[C@H](CCCCN)NC(=O)[C@H](CCCCN)NC(=O)[C@H](CCCCN)NC(=O)[C@@H](N)CCCN=C(N)N)C(=O)N[C@@H](CCCCN)C(=O)N[C@@H](CCCCN)C(=O)N[C@@H](C)C(=O)N[C@@H](CC(C)C)C(=O)N[C@@H](CCC(N)=O)C(=O)N[C@@H](Cc1ccc(O)cc1)C(N)=O` [RKKKMKKALQY], the MIC in test [1] and in test [5] was over 100 µM in each case.
`CC[C@H](C)[C@H](NC(=O)[C@H](CC(C)C)NC(=O)[C@@H](NC(=O)[C@H](CC(C)C)NC(=O)[C@H](CO)NC(=O)[C@H](CCCCN)NC(=O)[C@@H](NC(=O)[C@H](CC(C)C)NC(=O)[C@H](CCCCN)NC(=O)[C@H](CC(C)C)NC(=O)[C@H](CO)NC(=O)[C@H](CCCN=C(N)N)NC(=O)[C@H](CCCCN)NC(=O)[C@@H](NC(=O)[C@H](Cc1ccccc1)NC(=O)[C@@H](N)CO)[C@@H](C)CC)[C@@H](C)CC)C(C)C)C(=O)N[C@@H](CCCCN)C(=O)O` [SFIKRSLKLIKSLVLIK] showed an MIC in test [4] of 4 µM (≈ 7.95 µg/mL). That is a single-digit micromolar value.
Turning to `CC(C)C[C@H](NC(=O)[C@H](Cc1ccccc1)NC(=O)[C@@H]1CCCN1C(=O)[C@H](Cc1c[nH]c2ccccc12)NC(=O)[C@H](Cc1c[nH]c2ccccc12)NC(=O)[C@H](Cc1c[nH]c2ccccc12)NC(=O)[C@@H]1CCCN1C(=O)[C@H](Cc1ccccc1)NC(=O)[C@H](CCCCN)NC(=O)[C@H](CCCCN)NC(=O)[C@@H](N)C(C)C)C(=O)N[C@@H](CCCCN)C(=O)N[C@@H](CCCCN)C(N)=O` [VKKFPWWWPFLKK], the MIC in test [1] is 16 µM (≈ 28.6 µg/mL); in test [6], 11.2 µM (≈ 20 µg/mL); in test [4], 5.59 µM (≈ 9.99 µg/mL).
`CC(C)C[C@H](NC(=O)[C@H](CC(C)C)NC(=O)[C@H](CC(N)=O)NC(=O)[C@H](CCCCN)NC(=O)[C@H](CC(C)C)NC(=O)[C@H](CC(N)=O)NC(=O)[C@@H](N)C(C)C)C(=O)N[C@@H](CCCN=C(N)N)C(=O)O` [VNLKNLLR] showed an MIC in test [5] of 32 µM (≈ 31 µg/mL).
Consider `CC(C)C[C@H](NC(=O)[C@H](Cc1ccccc1)NC(=O)[C@@H]1CCCN1C(=O)[C@H](Cc1ccc(O)cc1)NC(=O)[C@H](Cc1c[nH]c2ccccc12)NC(=O)[C@H](Cc1c[nH]c2ccccc12)NC(=O)[C@@H]1CCCN1C(=O)[C@H](Cc1ccccc1)NC(=O)[C@H](CCCN=C(N)N)NC(=O)[C@H](CCCN=C(N)N)NC(=O)[C@@H](N)C(C)C)C(=O)N[C@@H](CCCN=C(N)N)C(=O)N[C@@H](CCCN=C(N)N)C(N)=O` [VRRFPWWYPFLRR], for which the MIC in test [1] amounted to 4 µM (≈ 7.51 µg/mL).
Turning to `NC(=O)[C@H](Cc1c[nH]c2ccccc12)NC(=O)[C@H](CCCN=C(N)N)NC(=O)[C@H](Cc1ccc(O)cc1)NC(=O)[C@H](CCCN=C(N)N)NC(=O)[C@@H](N)Cc1c[nH]c2ccccc12` [WRYRW], the results for the MIC in test [1] and in test [2] were 115 µM (≈ 99.9 µg/mL) and 57.7 µM (≈ 49.9 µg/mL), respectively.

The values above are taken from DBAASP.
